{"source": "paper PMC12430443", "about": "“Discovery of Novel Benzamide-Based Sigma-1 Receptor Agonists with Enhanced Selectivity and Safety” (Molecules, 2025)", "key": {"[1]": {"test_system": "CYP1A", "design": "method as in PMID 36233193", "conditions": "at 10 µM; cited from earlier work"}, "[2]": {"target": "T1, S2R (Homo sapiens, UniProt Q5BJF2)", "T1 construct": "For the S2R assay, Jurkat cell membranes (10–20 μg protein/tube) were incubated at room temperature for 1 h; host or cells: Jurkat cell membranes", "T1 sequence (Q5BJF2 whole entry)": "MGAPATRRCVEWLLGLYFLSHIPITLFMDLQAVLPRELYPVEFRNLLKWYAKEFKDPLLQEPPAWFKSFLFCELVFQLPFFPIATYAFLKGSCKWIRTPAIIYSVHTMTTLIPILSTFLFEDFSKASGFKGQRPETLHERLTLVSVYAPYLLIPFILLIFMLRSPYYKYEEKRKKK", "test": "S2R competitive radioligand binding, [3H]-DTG with excess (+)-pentazocine, Jurkat cell membranes", "source_text": "(§1) S1R and S2R affinities were classically evaluated through competitive binding assays using radioligands, following the protocol described by Ganapathy et al.. The selective radioligand [^3H] (+)-pentazocine was employed as the classic prototypical ligand, selectively binding to the orthosteric S1R-binding sites. […] Jurkat cell membranes served as the receptor source in both assays. The equilibrium dissociation constants (Ki) for S1R and S2R were derived from the IC50 values of each compound, and selectivity ratios (S2R/S1R) were subsequently calculated (Table 1, Figures S2 and S3).\n(§2) Binding assays were performed by Eurofins Cerep (Poitiers, France) according to the protocol of Ganapathy. […] For the S2R assay, Jurkat cell membranes (10–20 μg protein/tube) were incubated at room temperature for 1 h in the same buffer with [^3H]-DTG (25 nM) in the presence of (+)-pentazocine (1 μM) to saturate S1R, along with a range of test compound concentrations. Bound radioactivity was quantified by liquid scintillation counting. Nonspecific binding was determined under identical conditions in the presence of 10 μM unlabeled haloperidol. The IC50 values (concentration causing a half-maximal inhibition of control-specific binding) and Hill coefficients (nH) were determined by non-linear regression analysis of the competition curves generated with mean replicate values using Hill equation curve-fitting. This analysis was performed using software developed at Cerep (Hill software) and validated by comparison with data generated by the commercial software SigmaPlot ®4.0 for Windows® (©1997 by SPSS Inc.). Inhibition constants (Ki) were calculated from IC50 values using the method of Cheng and Prusoff."}, "[3]": {"target": "histamine H1 receptor (Homo sapiens, UniProt P35367)", "sequence (P35367 whole entry)": "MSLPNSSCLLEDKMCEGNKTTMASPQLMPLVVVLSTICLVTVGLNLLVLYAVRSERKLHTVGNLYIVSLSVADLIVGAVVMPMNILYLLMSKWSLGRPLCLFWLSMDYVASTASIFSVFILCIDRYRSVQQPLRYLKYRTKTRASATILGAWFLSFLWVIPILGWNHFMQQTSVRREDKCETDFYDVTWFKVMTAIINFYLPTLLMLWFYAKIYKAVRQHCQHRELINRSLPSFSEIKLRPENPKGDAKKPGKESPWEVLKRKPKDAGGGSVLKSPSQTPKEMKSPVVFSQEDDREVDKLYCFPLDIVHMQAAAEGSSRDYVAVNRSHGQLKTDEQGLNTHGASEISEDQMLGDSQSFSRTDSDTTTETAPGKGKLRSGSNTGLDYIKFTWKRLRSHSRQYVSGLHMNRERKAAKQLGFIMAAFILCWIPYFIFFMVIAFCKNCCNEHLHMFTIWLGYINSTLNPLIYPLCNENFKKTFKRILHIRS", "design": "method as in PMID 11897056", "conditions": "10 µM; cited from earlier work"}, "[4]": {"design": "method as in PMID 36233193", "conditions": "cited from earlier work"}, "[5]": {"design": "method as in PMID 36233193", "conditions": "10 µM; cited from earlier work"}, "[6]": {"target": "T2, CYP2C19 (Homo sapiens, UniProt P33261)", "T2 construct": "tissue Eurofins Cerep (assay provider); host or cells: human liver microsomes", "T2 sequence (P33261 whole entry)": "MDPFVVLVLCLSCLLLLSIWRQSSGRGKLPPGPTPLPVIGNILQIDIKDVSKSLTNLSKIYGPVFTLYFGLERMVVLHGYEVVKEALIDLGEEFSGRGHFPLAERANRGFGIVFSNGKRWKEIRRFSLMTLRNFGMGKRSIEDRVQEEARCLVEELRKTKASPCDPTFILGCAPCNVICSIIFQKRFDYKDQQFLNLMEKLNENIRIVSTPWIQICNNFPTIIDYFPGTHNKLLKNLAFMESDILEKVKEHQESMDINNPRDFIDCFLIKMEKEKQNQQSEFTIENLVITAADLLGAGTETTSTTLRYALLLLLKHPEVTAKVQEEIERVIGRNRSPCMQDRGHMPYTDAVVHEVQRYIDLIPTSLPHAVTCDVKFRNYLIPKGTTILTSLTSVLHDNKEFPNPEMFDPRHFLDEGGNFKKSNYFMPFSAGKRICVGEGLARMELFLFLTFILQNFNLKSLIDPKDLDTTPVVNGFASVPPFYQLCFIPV", "design": "method as in PMID 36233193", "conditions": "at 10 µM; cited from earlier work"}, "[7]": {"target": "T3, S1R (Homo sapiens, UniProt Q99720)", "T3 construct": "For the S1R assay, Jurkat cell membranes (10–20 μg protein/tube) were incubated at 37 °C for 2 h; host or cells: Jurkat cell membranes", "T3 sequence (Q99720 whole entry)": "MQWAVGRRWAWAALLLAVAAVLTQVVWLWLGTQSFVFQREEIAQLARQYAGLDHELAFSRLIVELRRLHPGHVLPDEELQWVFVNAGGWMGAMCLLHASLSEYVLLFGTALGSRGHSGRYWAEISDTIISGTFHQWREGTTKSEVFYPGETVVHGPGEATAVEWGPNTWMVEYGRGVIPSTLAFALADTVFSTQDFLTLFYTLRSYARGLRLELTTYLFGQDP", "test": "S1R competitive radioligand binding, [3H](+)-pentazocine, Jurkat cell membranes", "conditions": "Jurkat cell membranes", "source_text": "as §1, §2"}, "[8]": {"design": "method as in PMID 36233193", "conditions": "10 µM; cited from earlier work", "remark": "listed apart in the source"}, "[9]": {"target": "muscarinic M1 receptor (Homo sapiens, UniProt P11229)", "sequence (P11229 whole entry)": "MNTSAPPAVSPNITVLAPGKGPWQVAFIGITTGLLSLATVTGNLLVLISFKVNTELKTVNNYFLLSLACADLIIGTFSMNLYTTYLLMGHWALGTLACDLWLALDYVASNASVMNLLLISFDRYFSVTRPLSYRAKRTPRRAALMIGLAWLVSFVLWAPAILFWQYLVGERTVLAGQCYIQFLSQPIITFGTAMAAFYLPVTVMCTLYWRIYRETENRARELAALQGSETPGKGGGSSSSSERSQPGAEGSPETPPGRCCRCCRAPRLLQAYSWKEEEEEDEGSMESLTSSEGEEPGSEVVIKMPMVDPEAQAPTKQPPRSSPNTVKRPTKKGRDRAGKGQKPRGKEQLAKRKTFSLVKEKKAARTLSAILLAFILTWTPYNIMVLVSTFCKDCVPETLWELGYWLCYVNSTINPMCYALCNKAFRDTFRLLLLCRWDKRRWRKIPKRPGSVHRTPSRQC", "design": "method as in PMID 11897056", "conditions": "10 µM; cited from earlier work"}, "[10]": {"test_system": "CYP3A", "design": "method as in PMID 36233193", "conditions": "at 10 µM; cited from earlier work"}, "[11]": {"test_system": "Caco-2 cell line", "design": "method as in PMID 36233193", "conditions": "10 µM, cited from earlier work"}, "[12]": {"target": "MRP2 (Homo sapiens, UniProt Q92887)", "sequence (Q92887 whole entry)": "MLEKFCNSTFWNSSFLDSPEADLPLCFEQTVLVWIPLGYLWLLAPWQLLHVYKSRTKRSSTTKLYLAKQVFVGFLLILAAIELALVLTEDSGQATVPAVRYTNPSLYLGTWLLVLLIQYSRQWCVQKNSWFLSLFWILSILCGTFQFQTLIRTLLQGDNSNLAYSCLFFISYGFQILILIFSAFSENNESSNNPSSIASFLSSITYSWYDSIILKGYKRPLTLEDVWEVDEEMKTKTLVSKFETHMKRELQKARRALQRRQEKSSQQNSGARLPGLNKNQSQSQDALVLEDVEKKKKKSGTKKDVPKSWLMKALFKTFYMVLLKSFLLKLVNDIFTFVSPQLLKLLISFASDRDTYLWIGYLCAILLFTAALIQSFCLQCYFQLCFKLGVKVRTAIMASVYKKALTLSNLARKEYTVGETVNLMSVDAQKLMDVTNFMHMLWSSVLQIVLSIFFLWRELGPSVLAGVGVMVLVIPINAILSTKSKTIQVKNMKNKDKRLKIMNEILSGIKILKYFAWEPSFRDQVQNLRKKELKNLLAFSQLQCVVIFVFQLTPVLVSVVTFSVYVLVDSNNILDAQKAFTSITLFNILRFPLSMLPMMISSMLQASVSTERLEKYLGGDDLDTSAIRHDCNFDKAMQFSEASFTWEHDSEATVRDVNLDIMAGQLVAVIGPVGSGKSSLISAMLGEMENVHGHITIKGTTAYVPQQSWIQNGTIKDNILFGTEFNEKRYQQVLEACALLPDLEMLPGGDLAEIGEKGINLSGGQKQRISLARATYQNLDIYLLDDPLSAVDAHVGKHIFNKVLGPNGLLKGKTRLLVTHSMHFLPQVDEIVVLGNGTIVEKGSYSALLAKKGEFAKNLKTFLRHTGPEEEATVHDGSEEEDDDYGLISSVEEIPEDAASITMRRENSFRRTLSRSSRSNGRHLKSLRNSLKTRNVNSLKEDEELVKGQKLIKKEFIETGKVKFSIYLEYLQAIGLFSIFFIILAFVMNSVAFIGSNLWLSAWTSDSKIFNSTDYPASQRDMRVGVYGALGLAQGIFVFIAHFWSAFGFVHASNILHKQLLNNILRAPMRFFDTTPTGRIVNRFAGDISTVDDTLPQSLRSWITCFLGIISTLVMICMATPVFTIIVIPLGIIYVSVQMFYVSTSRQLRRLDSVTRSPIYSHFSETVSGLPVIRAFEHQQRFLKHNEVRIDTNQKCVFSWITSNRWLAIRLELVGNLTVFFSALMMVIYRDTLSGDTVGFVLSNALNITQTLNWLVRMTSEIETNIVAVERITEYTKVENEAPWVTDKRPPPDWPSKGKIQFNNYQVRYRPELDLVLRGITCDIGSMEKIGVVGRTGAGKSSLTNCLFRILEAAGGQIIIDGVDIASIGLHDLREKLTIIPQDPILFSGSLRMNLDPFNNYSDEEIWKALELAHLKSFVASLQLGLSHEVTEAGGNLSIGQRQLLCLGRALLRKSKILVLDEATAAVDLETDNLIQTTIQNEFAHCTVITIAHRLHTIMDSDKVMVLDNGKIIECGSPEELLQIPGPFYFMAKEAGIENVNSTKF", "design": "method as in PMID 36233193", "conditions": "at 10 µM; ABC family; cited from earlier work"}, "[13]": {"target": "T4, hERG channel (Homo sapiens, UniProt Q12809)", "T4 construct": "host or cells: CHO-K1", "T4 sequence (Q12809 whole entry)": "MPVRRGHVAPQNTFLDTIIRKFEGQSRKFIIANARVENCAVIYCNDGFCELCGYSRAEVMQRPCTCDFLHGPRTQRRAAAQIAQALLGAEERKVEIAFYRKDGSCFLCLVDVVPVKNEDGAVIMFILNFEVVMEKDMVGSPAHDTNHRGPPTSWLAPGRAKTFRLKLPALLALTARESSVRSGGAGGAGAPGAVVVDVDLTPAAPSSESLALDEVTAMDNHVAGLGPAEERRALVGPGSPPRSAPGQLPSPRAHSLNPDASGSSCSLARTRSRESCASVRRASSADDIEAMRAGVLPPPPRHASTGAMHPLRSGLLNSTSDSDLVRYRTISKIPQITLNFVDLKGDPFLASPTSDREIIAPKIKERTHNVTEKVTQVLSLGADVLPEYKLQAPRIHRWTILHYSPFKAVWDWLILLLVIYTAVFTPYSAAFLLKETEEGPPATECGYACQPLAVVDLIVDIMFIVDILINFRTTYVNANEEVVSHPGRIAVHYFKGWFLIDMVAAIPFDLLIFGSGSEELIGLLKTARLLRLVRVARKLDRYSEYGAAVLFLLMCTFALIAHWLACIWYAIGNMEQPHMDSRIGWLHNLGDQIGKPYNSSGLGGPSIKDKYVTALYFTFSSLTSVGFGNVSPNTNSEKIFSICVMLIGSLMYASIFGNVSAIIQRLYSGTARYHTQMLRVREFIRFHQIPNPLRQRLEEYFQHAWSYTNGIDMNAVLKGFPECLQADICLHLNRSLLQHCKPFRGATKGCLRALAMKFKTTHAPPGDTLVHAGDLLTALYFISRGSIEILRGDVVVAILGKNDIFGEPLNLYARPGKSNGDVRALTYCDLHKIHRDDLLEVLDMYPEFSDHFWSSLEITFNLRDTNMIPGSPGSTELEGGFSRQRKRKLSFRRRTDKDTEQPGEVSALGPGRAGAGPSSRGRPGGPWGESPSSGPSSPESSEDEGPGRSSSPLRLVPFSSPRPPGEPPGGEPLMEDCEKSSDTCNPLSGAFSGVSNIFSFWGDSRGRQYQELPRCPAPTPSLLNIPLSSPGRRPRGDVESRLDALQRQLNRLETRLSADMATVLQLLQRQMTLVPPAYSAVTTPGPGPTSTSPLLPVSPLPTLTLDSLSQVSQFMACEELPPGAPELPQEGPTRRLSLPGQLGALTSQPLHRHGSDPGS", "design": "method as in PMID 36233193", "conditions": "ratio; cited from earlier work"}, "[14]": {"test": "Cytotoxicity, MTT/MTS assay", "type": "cell-based, human", "conditions": "human, SH-SY5Y neuroblastoma cells; percentage of cell death after 24 h treatment at 100 µM (duplicate); read-out: SY5Y % Cytotox", "protocol": "(§3) To assess potential cytotoxicity in CNS-relevant cells, human neuroblastoma (SH-SY5Y) cells were exposed to compounds 2–7 at concentrations up to 100 μM. Cell viability was measured using the MTT assay.\n(§4) Cytotoxicity was assessed in human SH-SY5Y neuroblastoma cells cultured in Dulbecco’s Modified Eagle Medium (DMEM, Gibco, Thermo Fisher Scientific Inc., Waltham, MA, USA) supplemented with 2 mM L-glutamine, 100 μg/mL streptomycin, 100 IU/mL penicillin, 1 mM non-essential amino acids (all from Invitrogen, Thermo Fisher Scientific Inc., Waltham, MA, USA), and 10% (v/v) heat-inactivated fetal bovine serum (Sigma-Aldrich, Burlington, MA, USA). Cells were maintained at 37 °C in a humidified 5% CO2 atmosphere and serum-starved for 24 h to synchronize cultures before treatment with the test compounds at final concentrations of 100, 50, 10, 5, 1, 0.5, 0.1, or 0.05 μM (all in <0.1% DMSO). […] Absorbance was measured at 490 nm, and the results were expressed as a percentage relative to untreated control cells (set at 100%)."}, "[15]": {"test_system": "SH-SY5Y neuroblastoma cells", "test": "Cytotoxicity, MTT/MTS assay", "type": "cell-based, human", "conditions": "selectivity index; IC50 was considered > 100 µM", "protocol": "as §3, §4"}}}
{"smiles": "CN(CCCNC(=O)c1ccc(Cl)cc1)Cc1ccccc1", "note": "[Compound 1]", "values": [{"measurement": "CYP inhibition 1A", "setting": "[1]", "result": 2.1, "unit": "%"}, {"measurement": "IC50", "setting": "[2]; [3H]-DTG displacement with excess (+)-pentazocine, n = 2", "result": 255, "unit": "nM"}, {"measurement": "Ki", "setting": "[2]; [3H]-DTG with (+)-pentazocine, mean of 2–3 independent experiments", "result": 190, "unit": "nM"}, {"measurement": "H1 activity (in words)", "setting": "[3]", "result": "no activity"}, {"measurement": "Mouse plasma t1/2", "setting": "[4]", "result": 25.9, "unit": "h"}, {"measurement": "Plasma protein binding", "setting": "[5]", "result": 94, "unit": "%"}, {"measurement": "CYP inhibition 2C19", "setting": "[6]", "result": 36.2, "unit": "%"}, {"measurement": "Ki", "setting": "[7]; [3H](+)-pentazocine, mean of 2–3 independent experiments", "result": 3.2, "unit": "nM"}, {"measurement": "IC50", "setting": "[7]; [3H]-(+)-pentazocine displacement, n = 2", "result": 6.3, "unit": "nM"}, {"measurement": "Human liver microsome half-life t1/2", "setting": "[8]", "result": ">1", "unit": "h"}, {"measurement": "M1 antagonist activity (in words)", "setting": "[9]", "result": "antagonist activity"}, {"measurement": "CYP inhibition 3A", "setting": "[10]", "result": 36.9, "unit": "%"}, {"measurement": "Permeability A/B pH7.4/7.4", "setting": "[11]; Caco-2", "result": "29.1 ×10^−6 cm/s"}, {"measurement": "Permeability B/A pH7.4/7.4", "setting": "[11]; Caco-2", "result": "66.1 ×10^−6 cm/s"}, {"measurement": "e-ratio", "setting": "[11]; efflux ratio Papp(B→A)/Papp(A→B)", "result": 2.3}, {"measurement": "Drug transport inhibition MRP2", "setting": "[12]", "result": "−18.6", "unit": "%"}, {"measurement": "IC50 (hERG)/Ki (σ1)", "setting": "[13]", "result": 312}, {"measurement": "cytotoxicity at 24 h, 100 µM", "setting": "[14]", "result": 28, "unit": "%"}, {"measurement": "IC50 (SY5Y)/ Ki (S1R)", "setting": "[15]", "result": ">31,250"}]}
